Data as given in ChEMBL document CHEMBL3886670, “ROR modulators and their uses” (2016).

Target: T1, Nuclear receptor ROR-gamma (Homo sapiens, UniProt P51449)
T1 sequence (P51449 whole entry): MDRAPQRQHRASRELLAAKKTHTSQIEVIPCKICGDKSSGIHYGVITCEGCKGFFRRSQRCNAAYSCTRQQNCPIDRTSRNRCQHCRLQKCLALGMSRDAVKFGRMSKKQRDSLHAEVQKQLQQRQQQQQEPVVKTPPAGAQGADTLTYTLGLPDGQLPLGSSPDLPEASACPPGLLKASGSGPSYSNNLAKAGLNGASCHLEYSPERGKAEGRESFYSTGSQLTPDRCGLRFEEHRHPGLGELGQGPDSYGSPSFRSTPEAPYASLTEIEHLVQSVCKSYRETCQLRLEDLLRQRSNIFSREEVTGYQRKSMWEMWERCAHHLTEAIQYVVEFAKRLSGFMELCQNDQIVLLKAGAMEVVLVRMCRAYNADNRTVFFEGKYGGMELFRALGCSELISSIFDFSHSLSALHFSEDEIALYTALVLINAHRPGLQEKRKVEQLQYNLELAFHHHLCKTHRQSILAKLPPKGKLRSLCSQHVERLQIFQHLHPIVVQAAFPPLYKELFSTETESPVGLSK
Assay: Binding Assay: Compound binding to the human RORγ LBD was assessed using the Human RORγ Assay System (INDIGO Biosciences Inc.) as per manufacturer's instructions. Binding to the RORγ LBD was assessed using gradient concentrations of the indicated compounds in a final concentration of 0.5% DMSO.

CS(=O)(=O)Nc1ccc2c(c1)CCC(=O)N2Cc1ccc(C(O)(C(F)(F)F)C(F)(F)F)cc1
IC50: < 10 µM
